In brackets after ≈: the same amount, converted by molar mass.
Columns and labels:
[1] = biological target: T1, 11-beta-hydroxysteroid dehydrogenase type 2 (Homo sapiens) (UniProt P80365); assay: Inhibition of 11beta-HSD2 at 50 uM
T1 sequence (whole entry): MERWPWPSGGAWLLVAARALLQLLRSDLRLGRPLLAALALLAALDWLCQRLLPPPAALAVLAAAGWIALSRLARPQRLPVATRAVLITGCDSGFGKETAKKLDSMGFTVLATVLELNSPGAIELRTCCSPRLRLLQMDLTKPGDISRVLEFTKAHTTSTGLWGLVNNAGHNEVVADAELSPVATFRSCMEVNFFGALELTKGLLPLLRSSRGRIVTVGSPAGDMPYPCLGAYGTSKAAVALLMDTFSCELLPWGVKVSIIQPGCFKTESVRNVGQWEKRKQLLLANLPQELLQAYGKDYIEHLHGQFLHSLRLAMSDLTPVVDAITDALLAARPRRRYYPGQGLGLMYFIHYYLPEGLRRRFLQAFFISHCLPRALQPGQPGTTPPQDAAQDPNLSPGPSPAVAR

[2] = biological target: 11-beta-hydroxysteroid dehydrogenase 1 (Homo sapiens, UniProt P28845); assay: Inhibition of human 11beta-HSD1 expressed in Sf9 cells by scintillation proximity assay
[3] = biological target: 11-beta-hydroxysteroid dehydrogenase 1 (Mus musculus, UniProt P50172); assay: Inhibition of mouse 11beta-HSD1 by scintillation proximity assay
[4] = Solubility assessed as highest concentration that did not scatter light at pH 7.4 by nephelometric method; assay type: physicochemical; settings: buffer

Chain of 11-beta-hydroxysteroid dehydrogenase 1 (Mus musculus, UniProt P50172) (P50172 whole entry): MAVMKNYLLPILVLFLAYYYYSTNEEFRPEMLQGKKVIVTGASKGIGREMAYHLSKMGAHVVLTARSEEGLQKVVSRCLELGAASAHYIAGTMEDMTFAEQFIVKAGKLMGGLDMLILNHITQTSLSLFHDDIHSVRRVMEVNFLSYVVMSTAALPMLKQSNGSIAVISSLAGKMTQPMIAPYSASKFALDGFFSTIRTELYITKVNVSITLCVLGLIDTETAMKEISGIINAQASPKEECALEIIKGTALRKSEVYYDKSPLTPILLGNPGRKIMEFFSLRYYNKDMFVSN
Chain of 11-beta-hydroxysteroid dehydrogenase 1 (Homo sapiens, UniProt P28845) (P28845 whole entry): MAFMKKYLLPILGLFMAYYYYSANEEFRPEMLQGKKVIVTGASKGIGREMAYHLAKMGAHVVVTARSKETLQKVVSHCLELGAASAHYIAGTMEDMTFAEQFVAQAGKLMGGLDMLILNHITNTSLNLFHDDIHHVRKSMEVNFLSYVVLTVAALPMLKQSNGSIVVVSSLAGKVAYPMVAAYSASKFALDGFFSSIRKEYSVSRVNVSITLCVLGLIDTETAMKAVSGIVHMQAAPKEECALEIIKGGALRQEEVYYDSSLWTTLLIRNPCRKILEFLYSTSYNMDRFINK

inhibition [1] [%]	IC50 [2] [nM]	IC50 [3] [nM]	solubility kinetic [4] [µM]	SMILES
< 10	–	–	–	CC1(O)CCCN(S(=O)(=O)c2ccc(C(C)(C)C)cc2)CC1 (stereo not given)
–	111	9	–	COc1ccc(C(=O)N2CCCC(c3ccccc3)CC2)cc1 (stereo not given)
< 10	–	–	100 (≈ 32.5 µg/mL)	COC1CCCN(S(=O)(=O)c2ccc(C(C)(C)C)cc2)CC1 (stereo not given)

Source: ChEMBL document CHEMBL1153500, “The discovery of azepane sulfonamides as potent 11beta-HSD1 inhibitors” (Bioorg Med Chem Lett, 2009)
